Measured values: PMC9229255, “New Cladiellin-Type Diterpenoids from the South China Sea Soft Coral Cladiella krempfi: Structures and Molecular Docking Analysis in EGFRs” (Marine Drugs, 2022)

Columns and labels:
[1] = biological target: T1, EGFR (Homo sapiens, UniProt P00533); test: EGFR activity assay (kinase inhibition); type: biochemical; conditions: concentration 20000 nM; read-out: EGFR inhibitory data, Mean (percentage of inhibition)
Description: Six compounds were screened on EGFRs using staurosporine obtained from MedChemExpress (Cat. No. HY-15141; Lot. No. 41248) as the reference compound. In the bioassay for the EGFRs, testing kinases were performed in 1× kinase base buffer containing 50 mM HEPES (pH 7.5) and 0.0015% Brij-35, and stop buffer containing 100 mM HEPES (pH 7.5), 0.0015% Brij-35, 0.2% Coating Reagent #3, and 50 mM EDTA. For the compound preparing part, compounds were diluted to 50X of the final desired highest inhibitor concentration in the reaction by 100% DMSO, and 100 µL of the compound dilution was transferred to a well in a 96-well plate. Additionally, 100 µL of 100% DMSO was added to two empty wells for a no-compound control and a no-enzyme control in the same 96-well plate, which was marked as the source plate. […]. The compounds were mixed in an intermediate plate for 10 min on a shaker. For the assay plate, 5 µL of each well from the 96-well intermediate plate was transferred to a 384-well plate in duplicates. For the kinase reaction, 2.5× enzyme solution and 2.5× peptide solution were prepared. Moreover, 5 µL of compound were settled in the assay plate with 10% DMSO. Additionally, 10 µL of 2.5× enzyme solution was added to each well of the 384-well assay plate that was incubated at room temperature for 10 min. Then, 10 µL of 2.5× peptide solution was added to each well of the 384-well that was incubated at 28 °C for 30 min and stopped by 25 µL stop buffer. The percentage of inhibition was estimated using max-conversion divided by the max-min, and inhibition values were converted by convert conversion values from the caliper program. IC50 values were obtained from fitting the data in the XLfit excel add-in version 4.3.1.

[2] = biological target: T1, EGFR; parameters: method as in PMID 27940262; conditions: read-out: EGFR inhibitory activity IC50; cited from earlier work
[3] = tested on: mouse lymphocytic leukemia L1210 cells; parameters: method as in doi:10.1021/jo00269a027; conditions: as low as; cited from earlier work

T1 sequence (P00533 25-1210): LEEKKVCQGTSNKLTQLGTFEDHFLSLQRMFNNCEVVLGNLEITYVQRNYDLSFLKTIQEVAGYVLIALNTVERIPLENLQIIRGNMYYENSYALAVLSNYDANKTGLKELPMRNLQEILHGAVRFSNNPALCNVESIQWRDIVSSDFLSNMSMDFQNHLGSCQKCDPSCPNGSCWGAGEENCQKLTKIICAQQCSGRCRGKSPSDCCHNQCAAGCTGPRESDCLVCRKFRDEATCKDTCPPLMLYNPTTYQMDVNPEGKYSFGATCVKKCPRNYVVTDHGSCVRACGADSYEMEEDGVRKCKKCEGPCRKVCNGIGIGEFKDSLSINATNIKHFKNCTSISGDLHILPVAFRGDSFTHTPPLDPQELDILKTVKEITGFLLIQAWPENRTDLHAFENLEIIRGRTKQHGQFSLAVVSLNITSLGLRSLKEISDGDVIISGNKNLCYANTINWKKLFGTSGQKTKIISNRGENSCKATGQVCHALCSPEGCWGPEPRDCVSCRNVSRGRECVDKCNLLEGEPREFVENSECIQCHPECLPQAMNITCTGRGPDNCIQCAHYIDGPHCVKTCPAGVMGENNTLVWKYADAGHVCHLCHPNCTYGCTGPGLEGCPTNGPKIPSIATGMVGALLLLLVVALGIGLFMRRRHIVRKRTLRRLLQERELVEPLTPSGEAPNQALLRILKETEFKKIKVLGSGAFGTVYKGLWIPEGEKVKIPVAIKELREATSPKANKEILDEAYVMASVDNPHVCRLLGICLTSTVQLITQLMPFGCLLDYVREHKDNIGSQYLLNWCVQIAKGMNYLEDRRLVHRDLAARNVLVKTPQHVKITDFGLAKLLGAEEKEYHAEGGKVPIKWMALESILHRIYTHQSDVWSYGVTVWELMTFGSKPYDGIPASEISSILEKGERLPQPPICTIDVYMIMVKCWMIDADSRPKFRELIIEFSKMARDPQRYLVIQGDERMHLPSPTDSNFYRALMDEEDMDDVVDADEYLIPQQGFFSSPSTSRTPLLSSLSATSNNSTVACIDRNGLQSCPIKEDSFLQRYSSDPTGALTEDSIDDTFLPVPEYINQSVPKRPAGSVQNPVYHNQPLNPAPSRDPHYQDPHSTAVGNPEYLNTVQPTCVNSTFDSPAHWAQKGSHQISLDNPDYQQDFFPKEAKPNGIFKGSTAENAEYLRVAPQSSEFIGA

| Structure (SMILES) | inhibition at 20 µM [1] [%] | other results |
| --- | --- | --- |
| C=C1C(O)CCC(C)(OC(=O)CCC)C2OC(C1OC(C)=O)C1C(=C)C(O)CC(C(C)C)C12 (stereo not drawn) [Compound 1, litophynol C] | -9.9 | melting point: 183 to 184 °C |
| C=C1C(OO)CCC(C)(OC(=O)CCC)C2OC(C1OC(C)=O)C1C(=C)C(O)CC(C(C)C)C12 (stereo not drawn) [Compound 2, litophynol D] | -12.5 | – |
| C=C1CC[C@H](C(C)C)[C@@H]2[C@H]1[C@@H]1O[C@H]2[C@](C)(OC(=O)CCC)CC[C@H](O)C(=C)[C@H]1O [Compound 3, litophynol A] | -3.8 | – |
| C=C1CC[C@H](C(C)C)[C@@H]2[C@H]1[C@@H]1O[C@H]2[C@](C)(OC(=O)CCC)CC[C@H](O)C(=C)[C@H]1OC(=O)CCC [Compound 4, 8-butyryl-litophynol A] | -3.4 | – |
| C=C1CC[C@H](C(C)C)[C@@H]2[C@H]1[C@@H]1O[C@H]2[C@](C)(OC(=O)CCC)CC[C@H](OC)[C@@](C)(O)[C@H]1O [Compound 5, kremfielin B] | -7.5 | – |
| C=C1CC[C@H](C(C)C)[C@@H]2[C@H]1[C@H]1C[C@](C)(O)[C@@H](O)CC[C@@](C)(OC(=O)CCC)[C@@H]2O1 [Compound 6, litophynin E] | -4.9 | – |
| CCCC(=O)O[C@]1(C)CC[C@H](C(C)C)[C@@H]2[C@H]1[C@H]1C[C@](C)(O)[C@@H](O)CC[C@@](C)(OC(C)=O)[C@@H]2O1 [pachycladin A] | – | IC50 [2]: 500 nM |
| C=C1CC[C@H](C(C)C)[C@@H]2[C@H]1[C@H]1C[C@](C)(O)[C@@H](O)CC[C@@](C)(O)[C@@H]2O1 [sclerophytin A] | – | concentration showing significant cytotoxicity [3]: 1 ng/mL |
